Measurements reported in ChEMBL document CHEMBL3507680, “University of Dundee, Gates Library screen for HepG2 cell viability”.

Assay: Human HepG2 cell viability assay in 384 well format
Type: toxicity, cell-based
Parameters: dose 125 nL, time 70.5 hour; concentration not given beside the values
Details: HepG2 cells, read-out: Inhibition

SMILES	cytotoxicity at 70.5 h [%]
CCNC(=O)[C@@H]1CCCN1C1(C(=O)NC)CCC1	-5.11
Cc1nnc(CNC(=O)[C@@H]2C[C@H](NC(=O)C(C)(C)C)CN2C)[nH]1	-9.08
COc1cc(NC(=O)c2ccccc2F)c(C(=O)N(C)C)cc1OC	-10.5
CCC(O)CNC(=O)C1(N(C)Cc2ccccc2)Cc2ccccc2C1 (stereo not drawn)	-3.52
CCn1ncnc1CN1CCC(CNC(=O)c2cccc(C)n2)C1 (stereo not drawn)	-5.47
CCC1CN(C(=O)c2ccccc2N(C)C)CCN1C(C)C (stereo not drawn)	1.87
O=C(c1ccc(F)cc1F)N(CC(F)(F)F)C1CCOCC1	-4.08
Cc1cnn(CCCNC(=O)NC(C)C(=O)Nc2ccccc2)c1 (stereo not drawn)	6.05
CCNc1nc(-c2cccnc2)c(-c2ccnc(NCCO)n2)s1	-13.3
CC(=O)N1CCC(C(=O)NCCN2CCC(C)CC2)CC1	-2.37
Cc1cc(C)c(CNC(=O)N2CCN(c3ccncc3)CC2)c(=O)[nH]1	-9.77
CC(=O)NCC(=O)N1CCOC2(CCCN(c3cccnc3)C2)C1 (stereo not drawn)	14.8
O=S(=O)(C1CC1)N1CCCn2cnc(COc3cccnc3)c2C1	-2.62
Cn1c(CS(=O)(=O)Cc2cccc(Cl)c2)cc(=O)n(C)c1=O	-4.54
CC(C)Cc1nc(CSCC(=O)N2CCC(C)CC2)no1	3.72
CCc1nc(C)c([C@H]2CN(C)C[C@@H]2C(=O)Nc2ccc(OC)cc2)[nH]1	-7.07
CC(=O)OCc1ccc(CN2CCCCCC2c2cc(C)no2)o1 (stereo not drawn)	24.7
CCNc1cc2c(nn1)CCN(C(=O)c1ccc3cc[nH]c3c1)C2	2.8
Cc1csc2c(N3CCNC(C(=O)N4CCCC4)C3)ncnc12 (stereo not drawn)	-7.34
CCOCCN1CCCC1CS(N)(=O)=O (stereo not drawn)	-10.1
CC(CCn1cccn1)NCc1n[nH]c2c1CCCCC2 (stereo not drawn)	22.7
O=C(C[C@@H]1COC[C@H]2CN(Cc3cccnc3)C[C@@H]12)N1CCCC1	-4.76
CN(C)CCn1ccnc1C1CCN(c2cc(N)nc(N)n2)CC1	-6.61

SMILES	cytotoxicity at 70.5 h [%]
Cc1ccc(-c2nc(C(=O)N3CCCCC3CNS(C)(=O)=O)cs2)cc1 (stereo not drawn)	11
O=C(Nc1ccc(F)cc1)C1CCc2ccccc2N1 (stereo not drawn)	-1.61
CN(C)C(=O)c1cccc(NC(=O)N(CCO)Cc2ccsc2)c1	-4.45
CCOCC(O)CN1CCN(C(=O)c2cccc(OC)c2)CC1 (stereo not drawn)	-2.53
CC(=O)N1CCCN(C(=O)C(C)n2cncn2)CC1 (stereo not drawn)	-3.53
N#Cc1cccnc1N1CCC(OCCc2ccccc2)CC1	-9.51
CCNC(=O)COc1ccccc1N1CCCC(C)C1 (stereo not drawn)	-1.31
CC(c1ccc(F)c(F)c1)N(C)CCS(=O)(=O)CCC(N)=O (stereo not drawn)	-9.48
Cc1ncnc2c1CCN(C(=O)c1cnccn1)CC2	-0.588
Cc1cc(=O)n2ncnc2n1CC(O)COCc1ccccc1Cl (stereo not drawn)	-9.61
COC1(CNC(=O)c2ccc(Cl)c(Cl)c2)CCSC1 (stereo not drawn)	-15
CC1c2ncc(COc3cccnc3)n2CCN1Cc1ccco1 (stereo not drawn)	-12.4
Cc1noc(C2(C)CCCN(C(=O)C(C)C)C2)n1 (stereo not drawn)	-0.687
CC(C)N(C)CCCNC(=O)c1cnn(C(C)C)c1C(F)(F)F	13.9
CCCn1cnnc1CNCc1c[nH]nc1-c1ccc(F)cc1	-1.41
c1ccc(CN2C[C@@H]3COC[C@]3(COCC3CCOCC3)C2)nc1	1.04
COc1cccc(S(=O)(=O)N2CCOC(C)(C(N)=O)C2)c1 (stereo not drawn)	-3.76
Cc1cccc(-c2noc(CN3CCc4c(ncn4C4CC4)C3)n2)c1	-13.2
COc1cc(C)c(NC(=O)NCCn2cccc2)cc1OC	10.3
CCC(CC)(CNC(=O)NC1CCCC1(C)C)S(C)(=O)=O (stereo not drawn)	-7.23
c1ccc(CN2CC[C@H]3CO[C@H](CNc4ncccn4)[C@H]3C2)cc1	-5.27
CCOCCCNC(=O)Cc1cccs1	-1.71
COCCOCC(=O)Nc1cc(C)ccc1F	4.73

SMILES	cytotoxicity at 70.5 h [%]
Cc1nc(N2CCCC2)ncc1-c1cc(O)n2ncnc2n1	-2.97
Cn1ccnc1COc1ccc(CN2CCC(C(N)=O)CC2)cc1	-11.1
CC(NS(C)(=O)=O)C(=O)Nc1ccc2oc(C3CC3)nc2c1 (stereo not drawn)	-3.24
CNc1ncccc1C(=O)N1CCCC2(CCN(C)CC2)CC1	-1.7
CC(C)=CCN1C[C@H]2CC[C@@H]1CN(C(=O)c1ccc3[nH]cnc3c1)C2	3.14
CN(C)Cc1ccc(CNC(=O)NCC2(C)CCCS2)cc1 (stereo not drawn)	7.26
COc1c(-c2ccc(O)cc2)oc2cc(O)cc(O)c2c1=O [ISOKAEMPFERIDE]	-8.89
O=C(COc1ccc(Cl)cc1)N1CCN(c2cnccn2)CC1	-0.713
CN(Cc1ccccc1)CC1CC2(CO1)CN(Cc1cnn(C)c1)C2 (stereo not drawn)	-6.11
Cc1cccc(N2CCN(C(=O)CNCCn3cccn3)CC2)c1	9.75
CC(=O)NCCC(=O)NCc1cc(Br)ccc1OC(F)F	-7.14
CC1(C)O[C@@](C)([C@H]2CC3(CCN(c4cnccn4)CC3)CO2)CC[C@@H]1O	1.78
c1ccc(CN2CCCC2Cn2cncn2)nc1 (stereo not drawn)	7.22
Cn1ccnc1CN1C[C@H]2CN(S(=O)(=O)c3ccccc3)CCN2C1=O	-2.62
CCC(CC)(CC)NC(=O)Nc1nnc(-c2ccccn2)s1	-13.2
COc1cccc(CNC(C)c2ccc(-n3ccnc3)cc2)c1O (stereo not drawn)	-5.24
CC(Cn1cccn1)NC(=O)NCc1ccoc1 (stereo not drawn)	-10.1
COCCC(C)NC(=O)c1cc(Br)c2c(c1)OCCO2 (stereo not drawn)	-10.3
CSCC(=O)N(C)Cc1ccc(N(C)C)cc1	-6.63
C1CC(CN2CCO[C@H]3[C@H](OCC4CC4)CC[C@@H]32)CCO1	-2.31
Cc1nn(C(=O)c2cccnc2)c(C)c1C	27.4
COc1ccc(CNCC(C)Oc2ccccn2)cc1Cl (stereo not drawn)	-8.86
CSC(CNS(=O)(=O)c1cnn(C)c1)c1cccc(Cl)c1 (stereo not drawn)	-6.72

SMILES	cytotoxicity at 70.5 h [%]
Cn1cc(C(=O)N2CCCC(c3ncc[nH]3)C2)cn1 (stereo not drawn)	-7.17
Cc1ccc(F)c(S(=O)(=O)N2CCCC2c2ccncc2)c1 (stereo not drawn)	-1.25
CC(=O)c1cccc(OCCCC(=O)N(C)C2CCN(C)CC2)c1	-7.34
CC(C)OC(=O)N1CCCC(c2nccn2Cc2ccncc2)C1 (stereo not drawn)	-8
COC(=O)NC1(C(=O)Nc2ccc(-c3cc[nH]n3)cc2)CCCC1	-0.955
Cn1nnc2c1C(COCC1CC1)CN(C(=O)Cc1cccs1)C2 (stereo not drawn)	-19.3
Cc1nn(C)c(C)c1-c1ccc(=O)n(C(C)C(=O)NC2CC2)n1 (stereo not drawn)	17.4
O=C(O)c1cccnc1CN1CCCCC1CCc1cccs1 (stereo not drawn)	12.3
CNC(=O)[C@@H]1COC[C@H]2CN(C(=O)c3ccc(OC)cc3)C[C@H]21	-2.56
CC(C)c1cc(C(=O)NCCc2nc3c(s2)CCC3)n(C)n1	8.71
CNC(=O)NC(=O)CN1CCN(CC(F)(F)F)CC1(C)C	-4.26
CCCN(CC)c1ccc(C(=O)N2CCCC2c2cnn(C)c2)cn1 (stereo not drawn)	-5.94
CNc1cc(C)nc(C2CN(Cc3ccc(C)nc3)CCO2)c1 (stereo not drawn)	-9.06
CC(C)(C)CN1CCCC2(CCN(C(=O)c3ccc(O)nc3)C2)C1 (stereo not drawn)	-7.83
COc1cc(Cl)c(C)cc1NC(=O)CNc1ccn(CC(N)=O)n1	-7.27
c1cc(CNCC2Cn3nncc3CO2)cs1 (stereo not drawn)	-6.68
CN(Cc1ccco1)[C@@H]1CN(Cc2ccco2)[C@@H]2CCCO[C@H]12	-9.38
C[C@@H]1CN(Cc2ccncc2)C[C@]1(C)O	-18
CSc1ccc(C(=O)N2CCOCC2c2c(C)nn(C)c2C)o1 (stereo not drawn)	-4.66
Cc1cc(C(=O)N2CCC(C)CC2)ccc1NS(C)(=O)=O	-4.78
COc1nc2ccn(CCc3cc(O)nc(C)n3)c(=O)c2cc1C#N	-7.61
c1cncc(N2CCC3(CCCN(c4ccncc4)C3)CC2)c1	-6.14
O=C(CC1CCc2ccccc21)N1CCC(O)(Cn2ccnc2)CC1 (stereo not drawn)	-5.64

SMILES	cytotoxicity at 70.5 h [%]
CCC[C@H]1CN(C(=O)c2cc(-c3cccs3)n(C)n2)C[C@@H]1N	-0.00623
CN1CCN([C@@H]2CCN(CC3=Cc4cc(Cl)ccc4OC3)C[C@H]2O)CC1	-0.445
CCC(CC)(CNC(=O)OC(C)(C)C)NC(=O)C1CC1	16.7
CC(C)c1ccc2c(c1)C1(CC(=O)Nc3[nH]ncc31)C(=O)N2C (stereo not drawn)	-19.6
O=C(Nc1ccc(-c2nc3c([nH]2)CCNC3)cc1)N1CCCC1	-15.7
O=C1CN(C(=O)C2CN(c3cccc(Cl)c3)CCO2)CCN1 (stereo not drawn)	-7.93
CN(C)C(=O)CN1CCC2(CCCN(Cc3ccoc3)C2)C1=O (stereo not drawn)	-13.2
CN1CCN(S(=O)(=O)N2CCCCC2CCc2ccc(O)cc2)CC1 (stereo not drawn)	-4.09
O=C1COc2cc(C(=O)NS(=O)(=O)c3cc(Cl)ccc3Cl)ccc2N1	-8.05
COCCC(=O)N1CC2(CCN(Cc3ccccc3Cl)CC2)C1	12.5
COCC1CN(C(=O)CS(C)(=O)=O)Cc2ncn(CC3CC3)c21 (stereo not drawn)	1.88
O=C(N[C@@H]1CN(Cc2ccco2)[C@@H]2CCCO[C@@H]21)c1cscn1	-5.42
Cc1nn(CC(C)C)c(N(C)C)c1CNCc1cccnc1N(C)C	-13.5
CC(Cn1cc(Br)cn1)C(=O)Nc1ccc(Br)cn1 (stereo not drawn)	3.47
COc1ccc(OC2CCN(C(=O)c3cnc(C)s3)CC2)cc1	-4.93
CC(CC(=O)c1ccco1)NC(=O)c1ccon1 (stereo not drawn)	-8.03
COCC(NC(=O)NCc1ccc(C)c(F)c1)c1ccco1 (stereo not drawn)	1.44
CCOc1cccc(NC(=O)Cc2cccc(O)c2)n1	16.2
Cc1noc2ncc(S(=O)(=O)Nc3cc(C(C)(C)C)n[nH]3)cc12	-4.7
Cc1nc(C)n(C2CCCN(C(=O)CCc3ccncc3)C2)n1 (stereo not drawn)	-0.318
O=C1C[C@@H]2[C@H](CCN2Cc2ccco2)N1c1ccsc1	9.07
